According to patent US5807825A, “Platelet aggregation inhibitors” (COR Therapeutics, Inc., priority 1995, dated 1998):
Where a SMILES comes first, the peptide text is derived from it. Bridges are numbered along the chain shown (N, C = ends).

Tests used:
[1] = system: thrombi formation in dog coronary arteries; assay: Folts model of thrombosis, cyclic flow reductions (CFRs) in open chest dog coronary artery; type: in vivo
Procedure: A. Initiation of cyclic flow reductions (CFRs) in open chest dog. An occluder placed on the left anterior descending (LAD) coronary artery of a 20 kg dog, as previously described was performed.

M21 melanoma cells = assay: attachment of 35S-methionine labelled M21 melanoma cells to vitronectrin-coated plates; type: cell-based; conditions: FIGS. 31-34
Procedure: M21 melanoma cells, which express high levels of the vitronectrin receptor, were metabolically labelled with ^35 S-methionine, and then added to 24-well tissue culture plates coated with vitronectrin. An incubation period of 1 hr at 37° C. was allowed for cell attachment, and this was followed by a wash to remove non-adherent cells. After washing, the adherent cells were solubilized, and the supernatants placed in a liquid scintillation counter. The fraction of cells remaining adherent was calculated by dividing the cpm in the solubilized supernatants by the cpm in the total number of cells added to each well. The effects of purified snake venom peptides and synthetic cyclic peptides on cell adhesion was determined by including them with the M21 cells during the incubation period.
M21 melanoma cells were labelled with ^35 S-methionine, and then added to vitronectrin-coated plates in the presence of the indicated concentrations of purified snake venom peptides. Cell attachment was measured by solubilizing the cells remaining after an incubation and wash, as described in Section C, on page 40.

vitronectrin receptor [2] = biological target: T1, vitronectrin receptor (Homo sapiens, UniProt P05106+P06756); assay: plate assay: binding of labeled ligand (vitronectrin, vWF) to immobilized vitronectrin receptor; conditions: FIGS. 26-28
T1 construct: Vitronectrin receptor was prepared as described by Smith, J. W., J Biol Chem (1988) 263:18726-18731; from tissue
T1 sequence (P06756 31-889 limits assumed): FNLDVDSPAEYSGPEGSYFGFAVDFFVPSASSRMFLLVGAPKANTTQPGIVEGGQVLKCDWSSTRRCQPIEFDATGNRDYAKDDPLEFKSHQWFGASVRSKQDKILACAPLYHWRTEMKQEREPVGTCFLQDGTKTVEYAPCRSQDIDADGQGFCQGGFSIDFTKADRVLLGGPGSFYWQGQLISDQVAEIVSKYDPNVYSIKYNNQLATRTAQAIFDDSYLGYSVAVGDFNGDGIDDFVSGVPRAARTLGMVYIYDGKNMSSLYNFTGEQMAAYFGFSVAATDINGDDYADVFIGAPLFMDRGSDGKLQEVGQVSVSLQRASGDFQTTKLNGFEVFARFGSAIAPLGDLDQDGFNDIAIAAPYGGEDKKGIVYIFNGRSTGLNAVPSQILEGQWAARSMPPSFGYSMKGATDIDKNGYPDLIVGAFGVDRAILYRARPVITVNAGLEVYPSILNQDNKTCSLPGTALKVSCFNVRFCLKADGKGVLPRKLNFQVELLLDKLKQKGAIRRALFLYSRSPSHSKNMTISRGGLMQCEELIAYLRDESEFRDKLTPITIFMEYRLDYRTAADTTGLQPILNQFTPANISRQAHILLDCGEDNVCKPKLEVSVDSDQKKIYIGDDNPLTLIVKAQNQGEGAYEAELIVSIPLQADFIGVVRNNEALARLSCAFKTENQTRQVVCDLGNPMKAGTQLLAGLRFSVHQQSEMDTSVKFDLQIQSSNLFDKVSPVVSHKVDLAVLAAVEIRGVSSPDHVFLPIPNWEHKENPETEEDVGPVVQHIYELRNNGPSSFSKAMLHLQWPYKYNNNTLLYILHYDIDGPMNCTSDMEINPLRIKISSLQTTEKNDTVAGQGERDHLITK
T1 sequence (P06756 891-1048 partner limits assumed): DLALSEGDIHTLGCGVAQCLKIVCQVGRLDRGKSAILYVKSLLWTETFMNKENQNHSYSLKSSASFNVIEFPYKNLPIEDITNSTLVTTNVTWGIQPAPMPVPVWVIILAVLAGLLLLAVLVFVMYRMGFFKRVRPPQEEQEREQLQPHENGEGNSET
T1 sequence (P05106 27-788): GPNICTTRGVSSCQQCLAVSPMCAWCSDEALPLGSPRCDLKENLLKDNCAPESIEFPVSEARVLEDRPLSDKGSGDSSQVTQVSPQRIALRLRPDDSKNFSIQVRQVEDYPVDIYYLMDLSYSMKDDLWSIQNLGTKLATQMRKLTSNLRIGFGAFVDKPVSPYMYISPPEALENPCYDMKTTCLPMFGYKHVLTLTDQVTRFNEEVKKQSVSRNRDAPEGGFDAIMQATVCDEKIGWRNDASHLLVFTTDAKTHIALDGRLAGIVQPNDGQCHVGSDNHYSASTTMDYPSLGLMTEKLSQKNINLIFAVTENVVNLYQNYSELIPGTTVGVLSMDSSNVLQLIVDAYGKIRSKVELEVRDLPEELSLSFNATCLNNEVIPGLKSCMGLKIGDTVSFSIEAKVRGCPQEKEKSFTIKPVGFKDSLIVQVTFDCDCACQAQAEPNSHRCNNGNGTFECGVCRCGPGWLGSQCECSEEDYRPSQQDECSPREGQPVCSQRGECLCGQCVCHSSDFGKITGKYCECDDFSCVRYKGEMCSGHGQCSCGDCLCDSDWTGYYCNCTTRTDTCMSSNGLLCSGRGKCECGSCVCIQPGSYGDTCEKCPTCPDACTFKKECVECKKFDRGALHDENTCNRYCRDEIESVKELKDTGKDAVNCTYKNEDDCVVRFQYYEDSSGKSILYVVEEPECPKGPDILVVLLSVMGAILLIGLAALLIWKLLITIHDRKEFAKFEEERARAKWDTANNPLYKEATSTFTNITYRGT

vitronectrin receptor [3] = biological target: T1, vitronectrin receptor; conditions: background art; compared with same peptide before cyclization; cited from earlier work
fibronectin receptor = fibronectin receptor (Homo sapiens, UniProt P05556+P08648); conditions: background art; cited from earlier work
Chain of fibronectin receptor (P08648 42-894 limits assumed): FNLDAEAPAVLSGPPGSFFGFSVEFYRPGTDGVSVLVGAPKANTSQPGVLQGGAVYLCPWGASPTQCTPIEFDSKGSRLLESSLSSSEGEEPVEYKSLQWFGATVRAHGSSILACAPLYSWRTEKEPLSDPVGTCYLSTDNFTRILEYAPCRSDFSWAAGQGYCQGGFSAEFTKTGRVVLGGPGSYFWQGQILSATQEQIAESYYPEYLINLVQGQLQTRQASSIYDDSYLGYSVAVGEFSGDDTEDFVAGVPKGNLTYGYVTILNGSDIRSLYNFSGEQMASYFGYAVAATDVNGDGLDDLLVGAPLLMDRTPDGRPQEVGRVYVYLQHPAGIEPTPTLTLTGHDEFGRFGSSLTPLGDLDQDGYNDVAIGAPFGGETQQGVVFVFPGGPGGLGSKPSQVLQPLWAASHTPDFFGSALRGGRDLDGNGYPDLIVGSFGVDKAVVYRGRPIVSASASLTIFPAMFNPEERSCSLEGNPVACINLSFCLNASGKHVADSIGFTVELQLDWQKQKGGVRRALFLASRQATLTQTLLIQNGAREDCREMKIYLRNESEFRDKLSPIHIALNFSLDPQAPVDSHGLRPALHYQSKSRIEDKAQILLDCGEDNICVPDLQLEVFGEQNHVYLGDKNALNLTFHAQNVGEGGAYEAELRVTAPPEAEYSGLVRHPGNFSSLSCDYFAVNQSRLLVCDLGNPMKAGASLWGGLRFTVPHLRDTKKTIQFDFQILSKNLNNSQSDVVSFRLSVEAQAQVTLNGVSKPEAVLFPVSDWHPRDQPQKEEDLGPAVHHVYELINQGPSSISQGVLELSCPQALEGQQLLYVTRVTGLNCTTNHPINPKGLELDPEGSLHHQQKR
Chain of fibronectin receptor (P08648 895-1049 partner limits assumed): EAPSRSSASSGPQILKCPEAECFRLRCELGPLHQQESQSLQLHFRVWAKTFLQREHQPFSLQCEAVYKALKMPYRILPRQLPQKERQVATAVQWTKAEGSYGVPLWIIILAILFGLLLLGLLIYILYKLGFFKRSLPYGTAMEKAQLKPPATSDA
Chain of fibronectin receptor (P05556 21-798): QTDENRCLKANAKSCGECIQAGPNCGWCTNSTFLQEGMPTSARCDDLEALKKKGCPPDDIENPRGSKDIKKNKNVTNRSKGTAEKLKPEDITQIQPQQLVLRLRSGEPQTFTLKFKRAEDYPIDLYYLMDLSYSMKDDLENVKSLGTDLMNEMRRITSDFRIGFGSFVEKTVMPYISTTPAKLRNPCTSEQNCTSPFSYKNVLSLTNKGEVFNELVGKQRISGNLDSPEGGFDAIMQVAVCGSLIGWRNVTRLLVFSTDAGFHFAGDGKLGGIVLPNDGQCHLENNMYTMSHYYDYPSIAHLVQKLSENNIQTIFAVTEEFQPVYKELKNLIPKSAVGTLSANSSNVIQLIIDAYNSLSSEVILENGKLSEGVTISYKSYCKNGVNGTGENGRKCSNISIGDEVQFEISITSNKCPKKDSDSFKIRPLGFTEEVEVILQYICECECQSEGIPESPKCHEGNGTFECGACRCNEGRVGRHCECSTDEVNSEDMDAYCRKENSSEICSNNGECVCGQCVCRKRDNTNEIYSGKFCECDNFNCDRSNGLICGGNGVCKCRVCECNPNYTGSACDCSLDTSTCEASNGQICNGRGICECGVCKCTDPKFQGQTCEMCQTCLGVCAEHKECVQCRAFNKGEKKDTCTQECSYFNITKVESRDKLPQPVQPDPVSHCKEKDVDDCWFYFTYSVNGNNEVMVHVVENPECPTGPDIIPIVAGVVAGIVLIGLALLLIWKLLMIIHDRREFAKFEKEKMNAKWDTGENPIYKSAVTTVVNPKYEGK

GP IIb-IIIa = biological target: T2, GP IIb-IIIa (Homo sapiens, UniProt P05106+P08514); assay: plate assay: binding of labeled ligand (fibrinogen, vWF) to immobilized purified GP IIb-IIIa; conditions: plate assays, in words; FIGS. 2A-2C, 30A-30E
T2 construct: Purified platelet GP IIb-IIIa receptor was prepared as described by Fitzgerald, L. A., et al; from tissue; host or cells: platelets
T2 sequence (P08514 32-887 limits assumed): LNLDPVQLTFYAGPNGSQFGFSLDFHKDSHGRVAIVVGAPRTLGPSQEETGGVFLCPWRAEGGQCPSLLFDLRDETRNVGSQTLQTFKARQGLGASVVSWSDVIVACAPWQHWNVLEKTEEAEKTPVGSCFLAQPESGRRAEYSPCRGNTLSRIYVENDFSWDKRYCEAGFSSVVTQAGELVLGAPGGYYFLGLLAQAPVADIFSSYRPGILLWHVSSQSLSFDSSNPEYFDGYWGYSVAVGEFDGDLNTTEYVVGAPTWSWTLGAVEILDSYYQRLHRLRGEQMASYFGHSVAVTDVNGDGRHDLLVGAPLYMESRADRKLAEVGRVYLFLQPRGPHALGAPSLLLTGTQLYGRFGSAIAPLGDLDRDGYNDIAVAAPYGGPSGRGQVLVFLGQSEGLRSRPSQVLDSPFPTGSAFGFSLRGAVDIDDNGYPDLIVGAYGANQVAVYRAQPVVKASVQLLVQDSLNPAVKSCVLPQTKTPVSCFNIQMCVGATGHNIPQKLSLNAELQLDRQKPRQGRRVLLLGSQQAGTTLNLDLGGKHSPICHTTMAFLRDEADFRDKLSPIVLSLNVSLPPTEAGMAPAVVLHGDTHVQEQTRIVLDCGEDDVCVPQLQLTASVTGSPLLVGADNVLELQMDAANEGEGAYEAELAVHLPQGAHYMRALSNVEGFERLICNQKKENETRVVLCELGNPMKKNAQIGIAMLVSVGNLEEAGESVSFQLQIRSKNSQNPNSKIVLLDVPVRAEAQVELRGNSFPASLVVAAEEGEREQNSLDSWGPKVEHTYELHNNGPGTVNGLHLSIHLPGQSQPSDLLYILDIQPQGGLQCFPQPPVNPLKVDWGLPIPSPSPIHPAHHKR
T2 sequence (P08514 891-1039 partner limits assumed): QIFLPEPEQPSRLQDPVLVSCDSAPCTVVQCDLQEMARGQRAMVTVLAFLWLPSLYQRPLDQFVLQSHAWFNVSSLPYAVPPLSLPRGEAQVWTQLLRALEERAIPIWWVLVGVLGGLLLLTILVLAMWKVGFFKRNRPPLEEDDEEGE
T2 sequence (P05106 27-788): as the sequence (P05106 27-788) above
Procedure: In the assay, GP IIb-IIIa, prepared in purified form, for example as described by Fitzgerald, L. A., et al., Anal Biochem (1985) 151:169-177, incorporated herein by reference, is coated onto a solid support such as beads, test tubes, or microtiter plates. […] Fibrinogen is typically provided at a concentration of about 5-50 nM and the test material can, if desired, be added at a series of dilutions. Typical incubations are 2-4 hr at 35° C., the time and temperature being interdependent.
After incubation, the solution containing the fibrinogen and test material is removed and the level of binding of fibrinogen measured by quantitating bound fibrinogen to GP IIb-IIIa. Any suitable means of detection may be used, but it is convenient to employ labeled fibrinogen, for example using radioactive, fluorescent or biotinylated labels. Such methods are well known and need not be elaborated here.
In this case, percent inhibition may be calculated using the amount of Fg bound in the control as representing the basis, so that [formula] Other measures of inhibition effectiveness, such as IC50, may also be used.
Purified platelet GP IIb-IIIa receptor was prepared as described by Fitzgerald, L. A., et al., Anal Biochem (1985) 151:169-177. […] After purification, the receptors were stored in 0.1% Triton X-100 at 0.1-1.0 mg/ml. […]
The labeled ligands were added to the receptor-coated wells at final concentration of 10 nM (100 ul/well) and incubated for 3 h at 30° C. in the presence or absence of the test samples. After incubation, the wells are aspirated to dryness and bound ligand is quantitated.
For ^125 I-labeled ligands, the protein is solubilized with 250 ul SDS. For biotinylated ligands, the bound protein is detected by the addition of antibiotin antibody conjugated to alkaline phosphatase followed by addition of substrate (p-nitrophenyl phosphate), and determination of the optical density of each well at 405 nm. […]

Row | Compound | effect on M21 cell adhesion/attachment to vitronectrin, in words (M21 melanoma cells) | specificity: inhibition of fibrinogen/GP IIb-IIIa binding compared with vitronectrin/vitronectrin receptor binding (GP IIb-IIIa) | further results
1 | C[C@H](NC(=O)[C@@H]1CSSC[C@H](NC(=O)CN)C(=O)NCC(=O)N[C@@H](CCCCN)C(=O)NCC(=O)N[C@@H](CC(=O)O)C(=O)N[C@@H](Cc2c[nH]c3ccccc23)C(=O)N2CCC[C@H]2C(=O)N1)C(N)=O [#3] |  |  | effect on cyclic flow reductions (CFRs) in LAD coronary artery ([1]; 10 mg into a peripheral vein, 20 kg open chest dog, FIG. 36): partial ablation of the CFRs; effect on cyclic flow reductions (CFRs) in LAD coronary artery ([1]; second infusion of 40 mg into a peripheral vein, FIG. 37): complete ablation of the CFRs
2 | N=C(N)NCCC[C@H](N)C(=O)NCC(=O)N[C@@H](CC(=O)O)C(=O)N[C@@H](CO)C(=O)O [RGDS, reference compound] | potent inhibitors of cell attachment |  | 
3 | C[C@H](NC(=O)[C@@H]1CSSC[C@H](NC(=O)CN)C(=O)NCC(=O)N[C@@H](CCCNC(=N)N)C(=O)NCC(=O)N[C@@H](CC(=O)O)C(=O)N[C@@H](Cc2c[nH]c3ccccc23)C(=O)N2CCC[C@H]2C(=O)N1)C(N)=O [reference compound] (H-GCGRGDWPCA-NH2; disulfide 2-9) | potent inhibitors of cell attachment |  | 
4 | EEPCATGPCCRRCKFKRAGKVCRVAKGDWNNDYCTGK- S-C-D-C-P-R-N-P-W-N-G (EEPCATGPCCRRCKFKRAGKVCRVAKGDWNNDYCTGKSCDCPRNPWNG) [Analog #2] |  |  | inhibition of vitronectrin binding to vitronectrin receptor, in words (vitronectrin receptor [2]): inability to inhibit the binding of vitronectrin to the vitronectrin receptor
5 | C[C@H](NC(=O)[C@@H]1CSSC[C@H](NC(=O)CN)C(=O)NCC(=O)N[C@@H](CCCCN)C(=O)NCC(=O)N[C@@H](CC(=O)O)C(=O)N[C@@H](Cc2c[nH]c3ccccc23)C(=O)N2CCC[C@H]2C(=O)N1)C(N)=O [Analog #3, G-C-G-K-G-D-W-P-C-A-NH2] | ineffective up to 60 uM |  | 
6 | ECADGLCCDQCRFLKKGTVCRVAKGDWNDDTCTGQSC- D-C-P-R-N-G-L-Y-G (ECADGLCCDQCRFLKKGTVCRVAKGDWNDDTCTGQSCDCPRNGLYG) [Analog #1] | neither barbourin nor Peptide 1 (truncated barbourin) had a significant effect |  | 
7 | Gly-Pen-Gly-Arg-Gly-Asp-Ser-Pro-Cys-Ala (GRGDSPCA; N-terminal Gly-Pen; Pen-Cys disulfide cyclisation; printed: Gly-Arg-Gly-Asp-Ser-Pro-Cys-Ala) [cyclic peptide, disulfide bridge between Pen and Cys (Pierschbacher)] |  |  | inhibition of vitronectrin binding, in words (vitronectrin receptor [3]): able to inhibit vitronectrin binding more strongly than the same peptide before cyclization; inhibition of fibronectin binding, in words (fibronectin receptor): ineffective in inhibiting fibronectin binding
8 | NCCCC[C@@H]1NC(=O)CNC(=O)[C@@H](N)CSSC[C@@H](C(N)=O)NC(=O)[C@@H]2CCCN2C(=O)[C@H](Cc2c[nH]c3ccccc23)NC(=O)[C@H](CC(=O)O)NC(=O)CNC1=O [#5] (H-CGKGDWPC-NH2; disulfide 1-8) |  | quite specific | 
9 | C[C@H](NC(=O)[C@@H]1CSSC[C@H](NC(=O)CN)C(=O)N[C@@H](CCCCN)C(=O)NCC(=O)N[C@@H](CC(=O)O)C(=O)N[C@@H](Cc2c[nH]c3ccccc23)C(=O)N1)C(N)=O [#7] (H-GCKGDWCA-NH2; disulfide 2-7) |  | quite specific | 
10 | C[C@H](NC(=O)[C@@H]1CSSC[C@H](NC(=O)CN)C(=O)N[C@@H](CCCCN)C(=O)NCC(=O)N[C@@H](CC(=O)O)C(=O)N[C@@H](Cc2c[nH]c3ccccc23)C(=O)N2CCC[C@H]2C(=O)N1)C(N)=O [#4] (H-GCKGDWPCA-NH2; disulfide 2-8) |  | highest differential | 
